The target of this test is T1, human CB2R (Homo sapiens, UniProt P34972).
T1 construct: host or cells: CHO cells
T1 sequence (P34972 whole entry): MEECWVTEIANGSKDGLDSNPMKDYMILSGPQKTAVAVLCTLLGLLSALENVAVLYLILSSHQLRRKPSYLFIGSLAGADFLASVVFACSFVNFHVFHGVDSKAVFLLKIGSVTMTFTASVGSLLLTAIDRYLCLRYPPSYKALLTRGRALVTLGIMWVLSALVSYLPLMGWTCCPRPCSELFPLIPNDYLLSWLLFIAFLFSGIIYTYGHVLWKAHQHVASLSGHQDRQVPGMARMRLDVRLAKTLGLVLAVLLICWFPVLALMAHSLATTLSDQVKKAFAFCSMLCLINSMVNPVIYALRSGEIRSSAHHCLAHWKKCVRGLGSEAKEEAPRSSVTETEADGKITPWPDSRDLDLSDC
In words: CB2R mediated modulation of cAMP synthesis. In kind it is cell-based. Conditions: found through the use of the above described assays (binding and cAMP); CHO cells expressing human CB2R, forskolin-stimulated cAMP. In outline: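 EC50 values reflect inhibition of cAMP made in response to 10 uM forskolin (with 1 mM IBMX, 0.25% BSA) over 30 min at 37 °C in human CB2R-expressing CHO cells. The window runs from forskolin alone to 1 uM CP55940; curves fitted with a four-parameter logistic model.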
Take `CC(C)(C(=O)Nc1cnc2ccccc2c1)S(=O)(=O)c1ccc(Cl)cc1F` [2-[(4-chloro-2-fluorophenyl)sulfonyl]-2-methyl-N-quinolin-3-ylpropanamide]: the agonistic activity result was “agonistic activity”.
With `COc1ccc(S(=O)(=O)C(C)(C)C(=O)Nc2cc(C(C)(C)C)nn2C)cn1` [N-(5-tert-Butyl-2-methyl-2H-pyrazol-3-yl)-2-(6-methoxy-pyridine-3-sulfonyl)-2-methyl-propionamide], the agonistic activity entry is recorded as “agonistic activity”.
The entry for `COc1ccc(S(=O)(=O)C(C)(C)C(=O)Nc2nc(-c3ccc(Cl)cc3)cs2)cc1` [N-[4-(4-Chloro-phenyl)-thiazol-2-yl]-2-(4-methoxy-benzenesulfonyl)-2-methyl-propionamide] is “agonistic activity”.
The entry for `Cc1ccc(S(=O)(=O)C(C)(C)C(=O)Nc2ccc(C(F)(F)F)cn2)cc1` [2-Methyl-2-(toluene-4-sulfonyl)-N-(5-trifluoromethyl-pyridin-2-yl)-propionamide] is “agonistic activity”; for `Cc1sc(NC(=O)C(C)(C)S(=O)(=O)c2ccc(S(C)(=O)=O)cc2)nc1-c1ccccc1` [2-methyl-N-(5-methyl-4-phenyl-1,3-thiazol-2-yl)-2-{[4-(methylsulfonyl)phenyl]sulfonyl}propanamide] it is “agonistic activity”.
With `CC(C)c1cc(NC(=O)C(C)(C)S(=O)(=O)c2ccc(Cl)cc2)on1` [2-(4-Chloro-benzenesulfonyl)-N-(3-isopropyl-isoxazol-5-yl)-2-methyl-propionamide], the agonistic activity result is recorded as “agonistic activity”.
Consider `Cc1csc(NC(=O)C(C)(C)S(=O)(=O)c2ccc(Cl)cc2)n1` [2-(4-Chloro-benzenesulfonyl)-2-methyl-N-(4-methyl-thiazol-2-yl)-propionamide], for which the agonistic activity entry is “agonistic activity”.
On to `Cn1nc(-c2ccccc2)cc1NC(=O)C(C)(C)S(=O)(=O)c1ccc(S(C)(=O)=O)cc1` [2-methyl-N-(1-methyl-3-phenyl-1H-pyrazol-5-yl)-2-{[4-(methylsulfonyl)phenyl]sulfonyl}propanamide], for which the agonistic activity result was “agonistic activity”.
The entry for `CC(C)(C(=O)Nc1ncc(-c2ccc(F)c(F)c2)s1)S(=O)(=O)c1ccc(F)cc1` [N-[5-(3,4-Difluoro-phenyl)-thiazol-2-yl]-2-(4-fluoro-benzenesulfonyl)-2-methyl-propionamide] is “agonistic activity”; for `CCCc1cc(NC(=O)C(C)(C)S(=O)(=O)c2ccc(Cl)cc2)on1` [2-(4-Chloro-benzenesulfonyl)-2-methyl-N-(3-propyl-isoxazol-5-yl)-propionamide] it is “agonistic activity”.
On to `CC(C)(C(=O)Nc1ccc(C(F)(F)F)cn1)S(=O)(=O)c1ccc(C#N)cc1` [2-(4-Cyano-benzenesulfonyl)-2-methyl-N-(5-trifluoromethyl-pyridin-2-yl)-propionamide], for which the agonistic activity entry was “agonistic activity”.
On to `CC(C)(C(=O)Nc1cc(-c2cccs2)no1)S(=O)(=O)c1ccc(Cl)cc1` [2-(4-Chloro-benzenesulfonyl)-2-methyl-N-(3-thiophen-2-yl-isoxazol-5-yl)-propionamide], for which the agonistic activity entry is “agonistic activity”.
The entry for `CC(C)c1cc(NC(=O)C(C)(C)S(=O)(=O)c2ccc(C(F)(F)F)nc2)n(C)n1` [N-(3-isopropyl-1-methyl-1H-pyrazol-5-yl)-2-methyl-2-{[6-(trifluoromethyl)pyridin-3-yl]sulfonyl}propanamide] is “agonistic activity”; for `Cc1ccc(S(=O)(=O)C(C)(C)C(=O)Nc2nc(-c3ccc(Cl)cc3)cs2)cc1` [N-[4-(4-Chloro-phenyl)-thiazol-2-yl]-2-methyl-2-(toluene-4-sulfonyl)-propionamide] it is “agonistic activity”.
For the compound `CC(C)(C(=O)Nc1nc2ccc(F)cc2s1)S(=O)(=O)c1ccc(Cl)cc1` [2-[(4-chlorophenyl)sulfonyl]-N-(6-fluoro-1,3-benzothiazol-2-yl)-2-methylpropanamide], the agonistic activity result is reported as “agonistic activity”.
Turning to `O=C(Nc1ccc(C(F)(F)F)cn1)C1(S(=O)(=O)c2ccc(Cl)cc2)CC1` [1-(4-Chloro-benzenesulfonyl)-cyclopropanecarboxylic acid (5-trifluoromethyl-pyridin-2-yl)-amide], the agonistic activity result is reported as “agonistic activity”.
The entry for `Cc1ccc(S(=O)(=O)C(C)(C)C(=O)Nc2nc(C(F)(F)F)cs2)cc1` [2-Methyl-2-(toluene-4-sulfonyl)-N-(4-trifluoromethyl-thiazol-2-yl)-propionamide] is “agonistic activity”.
Turning to `CC(C)c1ccc(S(=O)(=O)C(C)(C)C(=O)Nc2cc(C(C)(C)C)on2)cc1` [N-(5-tert-Butyl-isoxazol-3-yl)-2-(4-isopropyl-benzenesulfonyl)-2-methyl-propionamide], the agonistic activity result is given as “agonistic activity”.
In the case of `Cc1ccc(NC(=O)C(C)(C)S(=O)(=O)c2ccc(S(C)(=O)=O)cc2)nc1` [2-(4-Methanesulfonyl-benzenesulfonyl)-2-methyl-N-(5-methyl-pyridin-2-yl)-propionamide], the agonistic activity result is on record as “agonistic activity”.
The entry for `CC(C)(C)c1cc(NC(=O)C2(S(=O)(=O)c3ccc(Cl)cc3)CC2)no1` [1-(4-Chloro-benzenesulfonyl)-cyclopropanecarboxylic acid (5-tert-butyl-isoxazol-3-yl)-amide] is “agonistic activity”; for `CC(C)(C)c1cc(NC(=O)C(C)(C)S(=O)(=O)c2cc(F)ccc2F)no1` [N-(5-tert-Butyl-isoxazol-3-yl)-2-(2,5-difluoro-benzenesulfonyl)-2-methyl-propionamide] it is “agonistic activity”; for `Cn1nc(C2CCCC2)cc1NC(=O)C(C)(C)S(=O)(=O)c1ccc(Cl)cc1` [2-(4-Chloro-benzenesulfonyl)-N-(5-cyclopentyl-2-methyl-2H-pyrazol-3-yl)-2-methyl-propionamide] it is “agonistic activity”.
The entry for `CC(C)(C)c1cc(NC(=O)C(C)(C)S(=O)(=O)c2ccccn2)no1` [N-(5-tert-Butyl-isoxazol-3-yl)-2-methyl-2-(pyridine-2-sulfonyl)-propionamide] is “agonistic activity”.
Take `CC(C)(C(=O)Nc1cc(C(F)(F)F)ccn1)S(=O)(=O)c1ccc(Cl)cc1` [2-(4-Chloro-benzenesulfonyl)-2-methyl-N-(4-trifluoromethyl-pyridin-2-yl)-propionamide]: the agonistic activity result was “agonistic activity”.
As to `CC(C)(C)c1ccc(S(=O)(=O)C(C)(C)C(=O)Nc2cc(C(C)(C)C)on2)cc1` [2-(4-tert-Butyl-benzenesulfonyl)-N-(5-tert-butyl-isoxazol-3-yl)-2-methyl-propionamide], the agonistic activity result was “agonistic activity”.
Next, `CC(C)(C(=O)Nc1nc(C(F)(F)F)cs1)S(=O)(=O)c1ccc(S(C)(=O)=O)cc1` [2-methyl-2-{[4-(methylsulfonyl)phenyl]sulfonyl}-N-[4-(trifluoromethyl)-1,3-thiazol-2-yl]propanamide]: “agonistic activity”.
Next, `CC(C)(C(=O)Nc1cc(C(F)(F)F)ccn1)S(=O)(=O)c1ccc(S(C)(=O)=O)cc1` [2-methyl-2-{[4-(methylsulfonyl)phenyl]sulfonyl}-N-[4-(trifluoromethyl)pyridin-2-yl]propanamide]: “agonistic activity”; `CC(C)(C)c1csc(NC(=O)C(C)(C)S(=O)(=O)c2ccc(C(F)(F)F)cc2)n1` [N-(4-tert-Butyl-thiazol-2-yl)-2-methyl-2-(4-trifluoromethyl-benzenesulfonyl)-propionamide]: “agonistic activity”; `CC(C)(C)c1csc(NC(=O)C(C)(C)S(=O)(=O)c2cccc(C(F)(F)F)c2)n1` [N-(4-tert-Butyl-thiazol-2-yl)-2-methyl-2-(3-trifluoromethyl-benzenesulfonyl)-propionamide]: “agonistic activity”.
On to `CC(C)(C)c1cc(NC(=O)C(C)(C)S(=O)(=O)c2ccc(Cl)nc2)no1` [N-(5-tert-Butyl-isoxazol-3-yl)-2-(6-chloro-pyridine-3-sulfonyl)-2-methyl-propionamide], for which the agonistic activity entry is listed as “agonistic activity”.
Turning to `Cc1sc(NC(=O)C(C)(C)S(=O)(=O)c2ccc(Cl)cc2)nc1-c1ccccc1` [2-(4-Chloro-benzenesulfonyl)-2-methyl-N-(5-methyl-4-phenyl-thiazol-2-yl)-propionamide], the agonistic activity entry was “agonistic activity”.
The entry for `CC(C)(C)Cc1cc(NC(=O)C(C)(C)S(=O)(=O)c2ccc(S(C)(=O)=O)cc2)on1` [N-[3-(2,2-dimethylpropyl)isoxazol-5-yl]-2-methyl-2-{[4-(methylsulfonyl)phenyl]sulfonyl}propanamide] is “agonistic activity”.
As for `CC(C)(C(=O)Nc1cc2ccccc2cn1)S(=O)(=O)c1ccc(F)cc1F` [2-(2,4-Difluoro-benzenesulfonyl)-N-isoquinolin-3-yl-2-methyl-propionamide], the agonistic activity result is on record as “agonistic activity”.
As to `CC(C)C(C(=O)Nc1cc(C(C)(C)C)on1)S(=O)(=O)c1ccc(C(F)(F)F)cn1` (stereo not drawn) [N-(5-tert-Butyl-isoxazol-3-yl)-3-methyl-2-(5-trifluoromethyl-pyridine-2-sulfonyl)-butyramide], the agonistic activity result is reported as “agonistic activity”.
`Cc1c(-c2ccccc2)nn(C)c1NC(=O)C(C)(C)S(=O)(=O)c1ccc(Cl)cc1` [2-(4-Chloro-benzenesulfonyl)-N-(2,4-dimethyl-5-phenyl-2H-pyrazol-3-yl)-2-methyl-propionamide]: the agonistic activity entry is “agonistic activity”.
For `CC(C)(C(=O)Nc1ccc(C(F)(F)F)cn1)S(=O)(=O)c1ccc(N2CCOCC2)nc1` [2-Methyl-2-(6-morpholin-4-yl-pyridine-3-sulfonyl)-N-(5-trifluoromethyl-pyridin-2-yl)-propionamide], the agonistic activity entry is recorded as “agonistic activity”.
